In patent US10471054B2, “CDK1 inhibitors of acetyl chrysin mannich base derivatives, synthesis and use thereof” (priority 2016, dated 2019):
Converted amounts (≈) assume the structure as drawn. Like-named read-outs stand apart in the source and are kept apart here.

Legend:
log P in Octanol/Water = format: physicochemical; details: octanol/water, Octanol/Water at 37° C.
Procedure: (§1) The solubility and log P of acetyl ChrysinMannich base derivatives see TABLE 1.
(§2) CH-j is pKa 5.3, log P 1.63 in Octanol/Water at 37° C. […] (BA-j 77m/ml). CH-j belongs to BCS II (low solubility, high permeability) and solubility presents the pH dependence. […] CH-j is a pH dependent fast release. […] It is speculated that CH-j has more appropriate log P and solubility with more likely entering tissue cells than others solubility acetyl Chrysin Mannich base derivatives.
(§3) (about 20 times BA-f 277 μg/ml) and 564 μg/ml in water at 37° C. (about 1000 times BA-f 0.53m/ml). CH-f is BCS I (high solubility and permeability) and solubility presents the pH dependence. It is speculated that CH-f has more appropriate log P and solubility with entering systemic (blood system and tissue cells) than others solubility acetyl Chrysin Mannich base derivatives.

pKa = format: physicochemical
Procedure: as §2, §3

[1] = Solubility in Octanol, water and pH media; format: physicochemical; details: 37° C.
Procedure: as §1, §2, §3

[2] = system: 5 cancers cells (MCF-7, H-460, BGC-823, PC-3, Hep G2); experiment: Anti-cancer cells proliferation activity, average of 5 cancer cells; format: cell-based; details: average of 5 cancer cells, MTT, 48 h
Description: Anti-cancer cells proliferationactivity of in vitro CH-j and CH-f were shown in TABLE 2 for the results of the screening of 5 cancers cells.

[3] = oral, liver first pass effect; cited from earlier work
[4] = Chrysin comparison value; cited from earlier work
Hep G2 = experiment: NaOCl level, BODTPY-OCl fluorescent probe imaging; format: cell-based; details: CH-j 40 μM or HCPT 5 μM for 4 h
Procedure: In vitro cultured Hep G2 was given by BODTPY-OCl selective fluorescent probe 5 μM for 0.5 h, added CH-j 40 μM or HCPT 5 μM for 4 h, and performed fluorescence imaging.

BGC-823 = experiment: Annexin V-FITC-PI double fluorescence, apoptosis and necrosis; format: cell-based; details: 24 h
Description: There is a series of morphological characteristic changes in the apoptosis of cells, in which the change of the plasma membrane is one of the characteristics of early apoptosis. The cytoplasm is flipped from the inside of the cytoplasm to the outer surface of the cell when the cell apoptosis, Annexin V is a Ca^++ dependent phospholipid binding protein, which has a high affinity with phospholipid-peptide-serine, which can be combined with the phospholipid peptide specificity that is exposed to the extracellular cells. However, cytoplasm transfer to cell membrane is not unique to apoptosis, but also can occur in cell necrosis. The difference between the two cell death modes is that the cell membrane is intact in the initial stage of apoptosis, and the integrity of the cell membrane in its early stage is destroyed. PI is a nucleic acid dye that cannot pass through the intact cell membrane, but in the cell and necrotic cells in the middle and late stage of apoptosis, the PI can dye the nucleus through the cell membrane. Annexin V-FITC-PI was used to detect apoptosis and necrotic cell ratio on flow cytometry.
A relatively small increase in apoptotic cells is increased.
FIG. 3-3 Annexin V-FITC/PI staining results for BGC-823.

[5] = organic solvent or mixture, Octanol, read-out: Solubility in Octanol
[6] = water, read-out: Solubility in H2O

SMILES	logP (log P in Octanol/Water)	pKa (pKa)	solubility [1, 5] [mg/mL]	solubility ([1]; water, text values of BA-j and BA-f, read-out: Solubility in water) [mg/mL]	solubility [1, 6] [mg/mL]	IC50 [2] [µM]	Glucose aldehyde acid metabolism [3] [%]	Maximum drug concentration [4] [µM]	NaOCl, yellow green fluorescence (Hep G2)	Apoptosis and necrosis by Annexin V-FITC-PI (BGC-823)
CN1CCN(Cc2c(O)c(O)c(O)c3c(=O)cc(-c4ccccc4)oc23)CC1 [BA-f, 5,6,7-trihydroxy-8-(4-methylpiperazin-1-ylmethyl)-2-phenyl-chromen-4-one, reference compound]	1.7	5.6	0.277 (≈ 724 µM)	0.00053 (≈ 1.39 µM)						
CC(=O)c1c(O)c(CN2CCOCC2)c2oc(-c3ccccc3)cc(=O)c2c1O [CH-d, 6-Acetyl-5,7-dihydroxy-8-morpholin-4-ylmethyl-2-phenyl-chromen-4-one]	2.62	5.1	0.58 (≈ 1470 µM)		0.0014 (≈ 3.54 µM)					
CC(=O)c1c(O)c(CN2CCSCC2)c2oc(-c3ccccc3)cc(=O)c2c1O [CH-e, 6-Acetyl-5,7-dihydroxy-2-phenyl-8-(thiomorpholin-4-ylmethyl)-2-phenyl-chromen-4-one]	3.08	4.8	0.12 (≈ 292 µM)		0.0001 (≈ 0.243 µM)					
CC(=O)c1c(O)c(CN2CCCC2CO)c2oc(-c3ccccc3)cc(=O)c2c1O (centres unmarked) [CH-h, 6-Acetyl-5,7-dihydroxy-8-(2-hydroxymethyl-pyrrolidin-1-ylmethyl)-2-phenyl-chromen-4-one]	1.77	5.4	2.55 (≈ 6230 µM)		0.0434 (≈ 106 µM)					
CC(=O)c1c(O)c(CN2CCN(CCO)CC2)c2oc(-c3ccccc3)cc(=O)c2c1O [CH-i, 6-Acetyl-5,7-dihydroxy-8-[4-(2-hydroxy-ethyl)-piperazin-1-ylmethyl]-2-phenyl-chromen-4-one]	2.07	4.8	0.733 (≈ 1670 µM)		0.0062 (≈ 14.1 µM)					
O=c1cc(-c2ccccc2)oc2cc(O)cc(O)c12 [Chrysin]						30	> 95	0.64		
CC[C@@]1(O)C(=O)OCc2c1cc1n(c2=O)Cc2cc3cc(O)ccc3nc2-1 [HCPT, reference compound]									present fluorescence	induce apoptosis at low doses, and high dose can cause the inflammatory necrosis of early cells
CC(=O)c1c(O)c(CN2CCC(O)CC2)c(O)c2c(=O)cc(-c3ccccc3)oc12 [is-CH-j, 8-Acetyl-5,7-dihydroxy-6-(4-hydroxy-piperidin-1-ylmethyl)-2-phenyl-chromen-4-one]	1.82	4.5	3.41 (≈ 8330 µM)		0.052 (≈ 127 µM)					
